Test results reported in US20180216057A1, “SYSTEM AND METHOD FOR GENERATING BIOLOGICAL TISSUE” (Yale University, priority 2017, published 2018).

Legend:
[1] = test system: hiPSC-CM EHTs; test: Inotropic/lusitropic response of hiPSC-CM EHTs to β-adrenergic agonist; type: cell-based, human; conditions: 100 nM isoproterenol, 8% stretch, 30 minutes equilibration, vs baseline
Protocol: To determine twitch force development and kinetics, EHTs were measured as early as 5 days after seeding. Clips holding the EHT were ejected from the frame and picked up by motorized micromanipulators with claw-like extensions, leaving the muscle suspended between an anchoring attachment claw on one end and a force transducer mounted to a second claw on the other (FIG. 5D). The EHT was immersed in a temperature-controlled perfusion bath equipped with electrodes for field stimulus. Throughout measurements, scaffolds were perfused with freshly oxygenated Tyrode's solution (in mM: NaCl 140, KCl5.4, MgCl2 1, HEPES 25, glucose 10, and CaCl 1.8; pH adjusted to 7.35). Used Tyrode's solution was collected in a sealed chamber during testing and checked to ensure adequate consistency of pH. The maximum fluctuation never exceeded 0.05 pH units. All measurements were performed at 35° C. During biomechanical testing, NRVM-EHTs were electrically paced (12 V, 10 ms pulse width at 0.5 Hz) and the resulting twitch force was recorded (FIG. 5E). Human EHTs were paced at 1 Hz. Intracellular calcium concentrations were measured in some constructs using the ratiometric fluorescent indicator Fura-2 AM. Inotropic response. […] Tissues were equilibrated in Tyorde's solution for 30 minutes and measured at 8% stretch. […]

[2] = test system: EHTs from neonatal rat ventricular myocytes (NRVMs) seeded into laser-cut decellularized porcine myocardium; test: Twitch stress and kinetics of NRVM engineered heart tissues cultured with thyroid hormone T3; type: cell-based
Protocol: To determine twitch force development and kinetics, EHTs were measured as early as 5 days after seeding. Clips holding the EHT were ejected from the frame and picked up by motorized micromanipulators with claw-like extensions, leaving the muscle suspended between an anchoring attachment claw on one end and a force transducer mounted to a second claw on the other (FIG. 5D). The EHT was immersed in a temperature-controlled perfusion bath equipped with electrodes for field stimulus. Throughout measurements, scaffolds were perfused with freshly oxygenated Tyrode's solution (in mM: NaCl 140, KCl5.4, MgCl2 1, HEPES 25, glucose 10, and CaCl 1.8; pH adjusted to 7.35). Used Tyrode's solution was collected in a sealed chamber during testing and checked to ensure adequate consistency of pH. The maximum fluctuation never exceeded 0.05 pH units. All measurements were performed at 35° C. During biomechanical testing, NRVM-EHTs were electrically paced (12 V, 10 ms pulse width at 0.5 Hz) and the resulting twitch force was recorded (FIG. 5E). Human EHTs were paced at 1 Hz. Intracellular calcium concentrations were measured in some constructs using the ratiometric fluorescent indicator Fura-2 AM.
During mechanical testing, EHTs were stretched until reaching their culture length (6 mm) and again after applying 0.1 mm incremental increases until reaching a length of 6.6 mm (representing 10% total stretch). Ten contraction events were recorded and averaged at each level of stretch. The peak stress (mN/mm^2) was computed offline by dividing measured force by the cross-sectional area of the EHT. Characteristics of contraction kinetics were also computed offline, including the time to peak stress (TTP) and time from peak stress to 50% relaxation (RT50). The length-stress gain during isometric stretch (slope of the stretch-peak stress relationship, FIG. 13C) was calculated for each scaffold using engineering strain as the unit for stretch. The force-frequency relationship was determined while keeping EHTs at 10% stretch and taking records at 0.5, 1, 2, 4, 6, and 8 Hz. During force-frequency measurements, pacing capture of EHTs was ensured by checking real time oscilloscope readings of the force transducer voltage output.
Thyroid hormone speeds contractile kinetics. To assess the sensitivity of this system towards changes in contractility and twitch kinetics, EHTs were subjected to a pharmacological perturbation known to alter the intrinsic properties of cardiac muscle. In rodents, an increase in thyroid hormone (T3) promotes expression of the faster α isoform of myosin heavy chain23. […] EHTs were characterized functionally and then returned to culture conditions at days 5, 8, 12, and 15.

[3] = 15 days old NRVM EHTs after T3 treatment, 2 Hz pacing

| SMILES | lusitropic response (twitch kinetics TTP and RT50) [1] | RT50 [2, 3] | TTP [2, 3] | time to peak stress (TTP) ([2]; NRVM EHTs, T3 10 ng/ml in culture, after 15 days in culture, untreated 113±6 ms) | time from peak stress to 50% relaxation (RT50) ([2]; NRVM EHTs, T3 10 ng/ml in culture, after 15 days in culture, untreated 130±3 ms) | effect on evolution of peak stress development across time points ([2]; T3 10 ng/ml, days 5, 8, 12, 15, 2-way repeated measures ANOVA) | effect on rates of contraction and relaxation vs non-treated control ([2]; T3 10 ng/ml, every time point analyzed (days 5, 8, 12, 15), p<0.001) |
| --- | --- | --- | --- | --- | --- | --- | --- |
| CC(C)NCC(O)c1ccc(O)c(O)c1 (stereo not shown) [Isoproterenol] | shorter TTP and RT50 | – | – | – | – | – | – |
| N[C@@H](Cc1cc(I)c(Oc2ccc(O)c(I)c2)c(I)c1)C(=O)O [T3] | – | around 59 ms | 83 ms | 77 ± 2 ms | 63 ± 3 ms | no significant effect | significantly accelerated rates of contraction and relaxation |
